{"source": "patent US20240166671A1", "about": "“Novel Stannic Protoporfin Compositions, Methods of Making, and Uses Thereof” (Renibus Therapeutics, Inc., priority 2022, published 2024)", "key": {"[1]": {"tested_on": "cultured human tubule cells", "experiment": "Cell viability of cultured human tubule cells exposed to SnPP", "type": "cell-based", "conditions": "for % Viable Cells: n = 6, control 100%", "protocol": "The composition of Example 1 and the Comparative Example were exposed to incubated cultured human tubule cells with different concentrations of SnPP."}, "HO-1": {"tested_on": "HO-1", "experiment": "HO-1/GAPDH mRNA (cortex) after IV FeS + SnPP, biomarker for oxidative stress", "type": "in vivo", "conditions": "combined with iron sucrose; HO-1 as indicator of oxidative stress", "protocol": "The SnPP composition of Example 1 and the Comparative Example (1 micromole) were combined with iron sucrose (1 mg) to assess biomarkers for oxidative stress."}}, "data": [{"smiles": "C=CC1=C(C)C2=Cc3c(C=C)c(C)c4[n]3[Sn]([Cl])([Cl])[n]3c(c(C)c(CCC(=O)O)c3=CC3=NC(=C4)C(C)=C3CCC(=O)O)=CC1=N2", "note": "[Example 1, Stannic protoporfin]", "values": [{"measurement": "% Viable Cells", "setting": "[1]; SnPP 10 nmol/mL", "value": 97.9, "unit": "%"}, {"measurement": "% Viable Cells", "setting": "[1]; SnPP 25 nmol/mL", "value": 95.3, "unit": "%"}, {"measurement": "% Viable Cells", "setting": "[1]; SnPP 75 nmol/mL", "value": 88.9, "unit": "%"}, {"measurement": "cell killing", "setting": "[1]; highest concentration of SnPP (75 nmol/mL)", "value": 11, "unit": "%"}, {"measurement": "cell death relative to comparative example", "setting": "[1]; human tubule cells", "value": "less cell death"}, {"measurement": "HO-1 induction relative to comparative example", "setting": "HO-1", "value": "lower HO-1 induction"}]}]}
